# Like-named read-outs stand apart in the source and are kept apart here.
# What was measured:
# [1] = system: rape Brassica napus; test: Petri dish culture, growth inhibition of root and stalk of rape; format: in vivo; settings: Brassica napus, 120 h, 5 days; for inhibition at 1 µg/mL: 1 mg/L; for inhibition at 10 µg/mL: 10 mg/L
# Experimental: (§1) The synthesized compounds were tested for the herbicidal activity on model plants including a monocotyledon (barnyard grass) and a dicotyledon (rape) by the reported Petri dish culture method. The percent inhibitory ratios against the growth of root and stalk of barnyard grass and rape at different dosage concentrations were calculated, and the compounds with appreciable inhibitory potencies are selected and shown in Table 1 and Table 2. Several features of the inhibitory activities can be derived. First, all the compounds have stronger inhibition against the growth of the dicotyledon rape than against the monocotyledon barnyard grass, showing appreciable selectivity.
# (§2) The herbicidal activity was examined for the growth inhibition effect of the dicotyledon rape Brassica napus and the monocotyledon barnyard grass Echinochloa crusgalli, using the standard Petri dish test and the pre-emergence treatment procedure. […] Nine mL of the solution was added in a Petri dish of 9 cm diameter and two pieces of filter paper were placed on the dish bottom. Twenty seeds each of rape and barnyard grass were placed on the filter paper. The covered Petri dish was transferred into an artificial climate incubator (MGC-400H, Shantou Keyi Co., Ltd., China), where the conditions were controlled at temperature 23 ± 1 °C, humidity 60 ± 5%, light intensity 10 Klux, and photoperiod 12 h/day. The incubation was continued for 5 days, then the lengths of 10 roots and 10 stems for each type of plant were measured and the mean values were calculated. The percent inhibitory ratios were calculated relative to control plants exposing to distilled water instead of the compound solution.
# [2] = system: barnyard grass Echinochloa crusgalli; test: Petri dish culture, growth inhibition of root and stalk of barnyard grass; format: in vivo; settings: Echinochloa crus-galli, 120 h, 5 days; for inhibition at 1 µg/mL: 1 mg/L; for inhibition at 10 µg/mL: 10 mg/L
# Experimental: as §1, §2
# [3] = root growth, read-out: Relative inhibition, root
# [4] = stalk growth, read-out: Relative inhibition, stalk
Compound,melting point,"inhibition at 1 µg/mL [1, 3]","inhibition at 1 µg/mL [1, 4]","inhibition at 10 µg/mL [1, 3]","inhibition at 10 µg/mL [1, 4]","inhibition at 1 µg/mL [2, 3]","inhibition at 1 µg/mL [2, 4]","inhibition at 10 µg/mL [2, 3]","inhibition at 10 µg/mL [2, 4]"
"O=c1oc(COc2ccc(F)cc2)nc2ccccc12 [3r, 2-((4-Fluorophenoxy)methyl)-4H-3,1-benzoxazin-4-one]",112.5 to 114.6 °C,81.4%,55.3%,99.6%,87%,62.6%,42.8%,96.8%,57.8%
"O=c1oc(COc2ccc(F)cc2)nc2cccc(Cl)c12 [3s, 5-Chloro-2-((4-fluorophenoxy)methyl)-4H-3,1-benzoxazin-4-one]",155.9 to 156.7 °C,72.8%,25.7%,98.6%,94.8%,61.1%,11.8%,91%,46.3%
"O=c1oc(COc2ccc(F)cc2)nc2ccc(Cl)cc12 [3t, 6-Chloro-2-((4-fluorophenoxy)methyl)-4H-3,1-benzoxazin-4-one]",159.8 to 161.7 °C,85.5%,60%,99.3%,91.7%,66.3%,36.4%,93.2%,49.1%
"O=c1oc(COc2ccc(F)cc2)nc2cc(Cl)ccc12 [3u, 7-Chloro-2-((4-fluorophenoxy)methyl)-4H-3,1-benzoxazin-4-one]",123.6 to 124.9 °C,92.7%,65.2%,99%,92.2%,61.8%,-7.3%,96.7%,39%
"Cc1ccc2nc(COc3ccc(F)cc3)oc(=O)c2c1 [3v, 2-((4-Fluorophenoxy)methyl)-6-methyl-4H-3,1-benzoxazin-4-one]",130.8 to 131.9 °C,87.7%,61%,99.3%,93.7%,69.9%,24.1%,92.2%,31.7%
"COc1cc2nc(COc3ccc(F)cc3)oc(=O)c2cc1OC [3w, 2-((4-Fluorophenoxy)methyl)-6,7-dimethoxy-4H-3,1-benzoxazin-4-one]",144.7 to 146 °C,35.2%,12.8%,79.7%,41.4%,37.5%,12.8%,64.5%,16.4%
"Nn1c(COc2ccc(Cl)cc2)nc2cccc(Cl)c2c1=O [4a, 3-Amino-5-chloro-2-((4-chlorophenoxy)methyl)-3H-quinazolin-4-one]",191.8 to 193.3 °C,28.5%,13.2%,41.5%,-5.9%,57.9%,8.9%,43.1%,14.9%
"Nn1c(COc2ccc(Cl)cc2)nc2ccc(Cl)cc2c1=O [4b, 3-Amino-6-chloro-2-((4-chlorophenoxy)methyl)-3H-quinazolin-4-one]",178.1 to 179.4 °C,27.7%,14.7%,46.8%,13.2%,33.2%,20.9%,9.9%,11.9%
"Nn1c(COc2ccc(Cl)cc2)nc2cc(Cl)ccc2c1=O [4c, 3-Amino-7-chloro-2-((4-chlorophenoxy)methyl)-3H-quinazolin-4-one]",129.5 to 131.6 °C,27.7%,-9.3%,69.7%,41.6%,10.4%,1.4%,42.1%,17.9%
"Cc1ccc2nc(COc3ccc(Cl)cc3)n(N)c(=O)c2c1 [4d, 3-Amino-2-((4-chlorophenoxy)methyl)-6-methyl-3H-quinazolin-4-one]",177.3 to 178.6 °C,26.4%,-14.7%,31.3%,-3.4%,16.3%,11.9%,35.6%,7.4%
"COc1cc2nc(COc3ccc(Cl)cc3)n(N)c(=O)c2cc1OC [4e, 3-Amino-2-((4-chlorophenoxy)methyl)-6,7-dimethoxy-3H-quinazolin-4-one]",202.8 to 204.1 °C,21.9%,1.5%,30.8%,6.4%,13.8%,2.9%,23.3%,11.9%
"Nn1c(COc2ccc(Cl)cc2Cl)nc2cccc(Cl)c2c1=O [4g, 3-Amino-5-chloro-2-((2,4-dichlorophenoxy)methyl)-3H-quinazolin-4-one]",201.5 to 202 °C,5.7%,10%,17.5%,44.9%,11.8%,-5.9%,25.8%,-1.8%
"Nn1c(COc2ccc(Cl)cc2Cl)nc2ccc(Cl)cc2c1=O [4h, 3-Amino-6-chloro-2-((2,4-dichlorophenoxy)methyl)-3H-quinazolin-4-one]",223.6 to 224.9 °C,7.5%,10.7%,22%,19.9%,20%,-42%,37.5%,-12.7%
"Cn1c(COc2ccc(Cl)cc2)nc2ccc(Cl)cc2c1=O [4l, 6-Chloro-2-((4-chlorophenoxy)methyl)-3-methyl-3H-quinazolin-4-one]",179.9 to 181.2 °C,28.5%,1.5%,42.2%,10.8%,24.7%,8.9%,33.7%,11.9%
"Cn1c(COc2ccc(Cl)cc2)nc2cc(Cl)ccc2c1=O [4m, 7-Chloro-2-((4-chlorophenoxy)methyl)-3-methyl-3H-quinazolin-4-one]",202.4 to 203.9 °C,26.2%,1.5%,27.9%,-0.5%,14.8%,7.5%,29.2%,14.9%
"Cc1ccc2nc(COc3ccc(Cl)cc3)n(C)c(=O)c2c1 [4n, 2-((4-Chlorophenoxy)methyl)-3,6-dimethyl-3H-quinazolin-4-one]",196.4 to 197.6 °C,39.4%,7.8%,45%,16.6%,26.7%,14.9%,43.5%,14.9%
"COc1cc2nc(COc3ccc(Cl)cc3)n(C)c(=O)c2cc1OC [4o, 2-((4-Chlorophenoxy)methyl)-6,7-dimethoxy-3-methyl-3H-quinazolin-4-one]",201.8 to 202.7 °C,25.1%,1.9%,34.8%,-6.8%,13.3%,8.9%,17.3%,5.9%
"Cn1c(COc2ccc(Cl)cc2Cl)nc2ccccc2c1=O [4p, 2-((2,4-Dichlorophenoxy)methyl)-3-methy-3H-quinazolin-4-one]",172.1 to 173.4 °C,4.5%,27.1%,21.2%,29.2%,2.5%,-10.9%,29.4%,-47.3%
"Cn1c(COc2ccc(Cl)cc2Cl)nc2ccc(Cl)cc2c1=O [4q, 6-Chloro-2-((2,4-dichlorophenoxy)methyl)-3-methyl-3H-quinazolin-4-one]",240.1 to 241.8 °C,8.1%,14.4%,19.3%,38.9%,24.3%,5.4%,31.9%,-3.6%

# Reference: article PMC6268642, “Facile Synthesis and Herbicidal Evaluation of 4H-3,1-Benzoxazin-4-ones and 3H-Quinazolin-4-ones with 2-Phenoxymethyl Substituents” (Molecules, 2012)
